# Experimental data as given in patent US12352767B2, “Method of treating cognitive decline associated with neurological diseases based on a decrease in FLT4 expression or activity” (University of Virginia Patent Foundation, priority 2018, dated 2025).
# Entries after “also recorded” stand apart in the source; their conditions may differ.
# Key:
# brain parenchyma = assay: Brain perfusion/influx by CSF tracer OVA-A647 (brain sections); format: in vivo, mice; conditions: 7 days after Visudyne/photoconversion, vs control groups
# Method: Mice were anaesthetized by intraperitoneal (i.p.) injection of a mixed solution of ketamine (100 mg/Kg) and xylazine (10 mg/Kg) in saline. The skin of the neck was shaved and cleaned with iodine and 70% ethanol, ophthalmic solution placed on the eyes to prevent drying and the mouse's head was secured in a stereotaxic frame. After making a skin incision, the muscle layers were retracted and the cisterna magna exposed. Using a Hamilton syringe (coupled to a 33-gauge needle), the volume of the desired tracer solution was injected into the CSF-filled cisterna magna compartment. For brain CSF influx and lymphatic drainage experiments, 2 or 5 μL of Alexa Fluor® 594 or 647 conjugated OVA (Thermo Fisher Scientific), at 0.5 mg/mL in artificial CSF (#597316, Harvard Apparatus U.K.), were injected at a rate of 2.5 μL/min. After injecting, the syringe was left in place for additional 2 min to prevent back-flow of CSF.
# [1] = system: Ly6GnegCD45+CD11b+ brain myeloid cells; assay: Single cell RNA-seq of brain myeloid cells (microglia) of WT and 5xFAD mice (Table 6, Table 7); format: in vivo; design: key to Rel. Expr. 5xFAD Vis. + photo: HS-Q7 / Rel. Expr. 5xFAD Vis. + photo: Axl / Rel. Expr. 5xFAD Vis.: Ctdnep1 / Rel. Expr. 5xFAD Vis. + photo: Ctdnep1 / Rel. Expr. 5xFAD Vis.: Fabp5 / Rel. Expr. 5xFAD Vis. + photo: Fabp5 / Rel. Expr. 5xFAD Vis.: Nampt / Rel. Expr. 5xFAD Vis. + photo: Nampt / Rel. Expr. 5xFAD Vis. + photo: Tfdp1 / Rel. Expr. 5xFAD Vis. + photo: Hspb11 / Rel. Expr. 5xFAD Vis.: Tyrobp / Rel. Expr. 5xFAD Vis. + photo: Tyrobp / Rel. Expr. 5xFAD Vis. + photo: Tpt1 / Rel. Expr. 5xFAD Vis.: Fth1 / Rel. Expr. 5xFAD Vis. + photo: Fth1 / Rel. Expr. 5xFAD Vis. + photo: Eef1a1 / Rel. Expr. 5xFAD Vis.: Lgals3bp / Rel. Expr. 5xFAD Vis. + photo: Lgals3bp / Rel. Expr. 5xFAD Vis.: Ifitm3 / Rel. Expr. 5xFAD Vis. + photo: Ifitm3 / Rel. Expr. 5xFAD Vis.: Atp5h / Rel. Expr. 5xFAD Vis. + photo: Atp5h / Rel. Expr. 5xFAD Vis.: Fau / Rel. Expr. 5xFAD Vis. + photo: Fau / Rel. Expr. 5xFAD Vis.: Ftl1 / Rel. Expr. 5xFAD Vis. + photo: Ftl1 / Rel. Expr. 5xFAD Vis.: H2-K1 / Rel. Expr. 5xFAD Vis. + photo: H2-K1 / Rel. Expr. 5xFAD Vis. + photo: Tmsb4x / Rel. Expr. 5xFAD Vis. + photo: Uba52 / Rel. Expr. WT Vis.: Hexb / Rel. Expr. 5xFAD Vis.: Hexb / Rel. Expr. WT Vis.: Lgmn / Rel. Expr. 5xFAD Vis.: Lgmn / Rel. Expr. 5xFAD Vis. + photo: Rtp4 / Rel. Expr. 5xFAD Vis.: Lpl / Rel. Expr. 5xFAD Vis. + photo: Lpl: A “+” refers to relative upregulation of gene expression for the noted conditions; A “-” refers to relative downregulation of gene expression for the noted conditions
# Method: Effects of meningeal ablation on gene expression were studied in 5×FAD mice. Single cell RNA-seq of brain myeloid cells from 4 months old wild type (WT) and 5×FAD mice were injected with Visudyne alone (Vis., functional meningeal lymphatics) or injected with Visudyne and subjected to transcranial photoconversion (Vis.+photo., ablated meningeal lymphatics). Meningeal lymphatic ablation step was performed twice within a span of 3 weeks and brain myeloid cells were isolated 3 weeks after the last step. Data were obtained from sorted live Ly6G^negCD45^+CD11b^+ brain myeloid cells pooled from 3 mice per group (FIGS. 14A-B). Unsupervised clustering of brain myeloid single cells using t-distributed Stochastic Neighbor Embedding (t-SNE) plotted by group (FIG. 14A) or by distinct cell cluster (FIG. 14B). Frequency of cells from each cluster within the total 354, 487 and 308 cells from WT Vis., 5×FAD Vis. and 5×FAD Vis.+photo. groups, respectively (FIG. 14C). Genes involved in the acquisition of the disease-associated microglia phenotype, depicting the homeostatic, TREM2-independent and TREM2-dependent signatures within each cell were depicted in a heatmap (FIG. 14D). Cells are grouped by cluster and genes are grouped by signature (FIG. 14D). Upset plots were generated for all cells (FIG. 14E) or cluster 1 cells (FIG. 14F) showing the overlap in differentially expressed genes for comparisons between 5×FAD Vis. or 5×FAD Vis.+photo. and WT Vis. […] Expression values are averaged across cells within each group. Normalized enrichment score for GSEA pathways were obtained by Fisher's exact test with Benjamini-Hochberg corrections for the 24 differentially expressed genes in cluster 1 is shown in FIG. 14H. Enrichment analysis was performed in R using the clusterProfiler package. Depicted in FIG. 14I is a heatmap showing the mean-centered average log normalized expression of each gene contributing to the core-enrichment of the “Lysosome” GSEA pathway. Expression values are averaged across cells within each group. All scales show mean-centered, log-normalized expression values.
# [2] = 5xFAD mice, Visudyne + photoconversion, cluster 1 brain myeloid cells
# [3] = 5xFAD mice, Visudyne alone, cluster 1 brain myeloid cells
# [4] = WT mice, Visudyne alone, cluster 1 brain myeloid cells
substance,measurement,setting,value
verteporfin [Visudyne],brain perfusion by CSF tracer (OVA-A647 area fraction in brain sections),brain parenchyma,significantly lower; also recorded: significant decrease
same,Rel. Expr. 5xFAD Vis. + photo: Atp5h,[1]; [2],+
same,Rel. Expr. 5xFAD Vis. + photo: Axl,[1]; [2],+
same,Rel. Expr. 5xFAD Vis. + photo: Ctdnep1,[1]; [2],+
same,Rel. Expr. 5xFAD Vis. + photo: Eef1a1,[1]; [2],+
same,Rel. Expr. 5xFAD Vis. + photo: Fabp5,[1]; [2],+
same,Rel. Expr. 5xFAD Vis. + photo: Fau,[1]; [2],+
same,Rel. Expr. 5xFAD Vis. + photo: Fth1,[1]; [2],+
same,Rel. Expr. 5xFAD Vis. + photo: Ftl1,[1]; [2],+
same,Rel. Expr. 5xFAD Vis. + photo: H2-K1,[1]; [2],+
same,Rel. Expr. 5xFAD Vis. + photo: HS-Q7,[1]; [2],+
same,Rel. Expr. 5xFAD Vis. + photo: Hspb11,[1]; [2],+
same,Rel. Expr. 5xFAD Vis. + photo: Ifitm3,[1]; [2],+
same,Rel. Expr. 5xFAD Vis. + photo: Lgals3bp,[1]; [2],+
same,Rel. Expr. 5xFAD Vis. + photo: Lpl,[1]; [2],+
same,Rel. Expr. 5xFAD Vis. + photo: Nampt,[1]; [2],+
same,Rel. Expr. 5xFAD Vis. + photo: Rtp4,[1]; [2],+
same,Rel. Expr. 5xFAD Vis. + photo: Tfdp1,[1]; [2],+
same,Rel. Expr. 5xFAD Vis. + photo: Tmsb4x,[1]; [2],+
same,Rel. Expr. 5xFAD Vis. + photo: Tpt1,[1]; [2],+
same,Rel. Expr. 5xFAD Vis. + photo: Tyrobp,[1]; [2],+
same,Rel. Expr. 5xFAD Vis. + photo: Uba52,[1]; [2],+
same,Rel. Expr. 5xFAD Vis.: Atp5h,[1]; [3],+
same,Rel. Expr. 5xFAD Vis.: Ctdnep1,[1]; [3],+
same,Rel. Expr. 5xFAD Vis.: Fabp5,[1]; [3],+
same,Rel. Expr. 5xFAD Vis.: Fau,[1]; [3],+
same,Rel. Expr. 5xFAD Vis.: Fth1,[1]; [3],+
same,Rel. Expr. 5xFAD Vis.: Ftl1,[1]; [3],+
same,Rel. Expr. 5xFAD Vis.: H2-K1,[1]; [3],+
same,Rel. Expr. 5xFAD Vis.: Hexb,[1]; [3],+
same,Rel. Expr. 5xFAD Vis.: Ifitm3,[1]; [3],+
same,Rel. Expr. 5xFAD Vis.: Lgals3bp,[1]; [3],+
same,Rel. Expr. 5xFAD Vis.: Lgmn,[1]; [3],+
same,Rel. Expr. 5xFAD Vis.: Lpl,[1]; [3],+
same,Rel. Expr. 5xFAD Vis.: Nampt,[1]; [3],+
same,Rel. Expr. 5xFAD Vis.: Tyrobp,[1]; [3],+
same,"expression of genes of the GSEA lysosome pathway (Table 7, FIG. 14I)","[1]; 5xFAD mice, Visudyne with photo ablation, brain myeloid cells",relatively downregulated
same,"expression of 24 genes (Table 6) in cluster 1 brain myeloid cells, 5xFAD Vis.+photo. vs WT Vis.",[1]; Visudyne + photoconversion twice within 3 weeks,significantly different
same,"expression of 24 genes (Table 6) in cluster 1 brain myeloid cells, 5xFAD Vis. vs WT Vis.","[1]; Visudyne alone, no photoconversion",not significantly different
same,Rel. Expr. WT Vis.: Hexb,[1]; [4],+
same,Rel. Expr. WT Vis.: Lgmn,[1]; [4],+
